In US20230123334A1, “AMINO LIPID COMPOUND, PREPARATION METHOD THEREFOR, AND APPLICATION THEREOF” (SHENZHEN SHENXIN BIOTECHNOLOGY CO., LTD., priority 2020, published 2023):

What follows are compounds tested on HEK293 cells (assay: Preliminary screening as mRNA vectors, EGFP mRNA transfection of HEK293 cells). Conditions: EGFP mRNA 50 ng per well, 96-well plates; percentage of GFP fluorescent cells relative to total number of cells (Hoechst).
Format: cell-based
Protocol: Cell line: HEK293 cells (ATCC CRL-1573™)
Medium: DMEM supplemented with 10% fetal bovine serum (Invitrogen)
Screening: cell transfection on 96-well plates
Detection (readout): percentage of the number of GFP fluorescent cells relative to the total number of cells (the total number of cells was determined using nucleus dye Hoechst). Lipofectamine2000 (Invitrogen) was used as the positive control.
Method: the experimental method was basically the same with Example 4, and the mass of EGFP mRNA (TriLink) for transfection was 50 ng per well.
For `CCCCCCCCCCCCCCCNc1nc(NCCN(CC)CC)nc(SCCCCCCCCC)n1` [Compound D7S9N15], the “Absolute mRNA transfection efficiency in HEK293 cells” value (“Absolute mRNA transfection efficiency” for short) was 11.7%.
In the case of `CCCCCCCCNc1nc(NCCN2CCCC2)nc(SCCCCCC)n1` [Compound D3S6N8], the “Absolute mRNA transfection efficiency” value is reported as 0.0%.
For `CCCCCCCCCCCCNc1nc(NCCCN2CCOCC2)nc(SCCCCCC)n1` [Compound D8S6N12], the “Absolute mRNA transfection efficiency” value was 2.0%.
With `CCCCCCCCSc1nc(NCCN(CC)CC)nc(SCCCCCC)n1` [Compound D7S6S8] the “Absolute mRNA transfection efficiency” value was 18.9%.
In the case of `CCCCCCCCCCCCCCCCSc1nc(NCCCCCCCCCCCC)nc(NCCN2CCOCC2)n1` [Compound D2S16N12], the “Absolute mRNA transfection efficiency” value is reported as 1.2%.
For `CCCCCCCCCCCCCCCSc1nc(NCCCCCCCC)nc(NCCN2CCCC2)n1` [Compound D3S15N8], the “Absolute mRNA transfection efficiency” value was 17.0%.
For `CCCCCCCCCCCCN(CCCCCCCCCCCC)c1nc(NCCN2CCN(C)CC2)nc(SCCCCCCCC)n1` [D5S8^2N12], the “Absolute mRNA transfection efficiency” value was 0.9%.
`CCCCCCCCCCCCCCCSc1nc(NCCCCCCCCCCC)nc(NCCN2CCN(C)CC2)n1` [Compound D5S15N11] was tested, and the “Absolute mRNA transfection efficiency” value was 12.7%.
For `CCCCCCCCCCCCCCCCCCSc1nc(NCCCCCCCCCCCC)nc(NCCN(C)C)n1` [Compound D1S18N12], the “Absolute mRNA transfection efficiency” value was 2.3%.
With `CCCCCCCCCCCCNc1nc(NCCCN(C)C)nc(SCCCCCCCC)n1` [Compound D6S8N12] the “Absolute mRNA transfection efficiency” value was 46.0%.
With `CCCCCCCCCNc1nc(NCCN2CCN(C)CC2)nc(SCCCCCC)n1` [Compound D5S6N9] the “Absolute mRNA transfection efficiency” value was 2.0%.
For `CCCCCCCCCCCCCCCCCCNc1nc(NCCCN(C)C)nc(SCCCCCCCCCCCCCCCC)n1` [Compound D6S16N18], the “Absolute mRNA transfection efficiency” value was 0.0%.
In the case of `CCCCCCCCCCCSc1nc(NCCCCCCC)nc(NCCN2CCCC2)n1` [Compound D3S11N7], the “Absolute mRNA transfection efficiency” value is reported as 8.0%.
`CCCCCCCCCCCCCCCCSc1nc(NCCCCCCCCCCCC)nc(NCCN(C)C)n1` [Compound D1S16N12] was tested, and the “Absolute mRNA transfection efficiency” value was 3.0%.
In the case of `CCCCCCCCCCCSc1nc(NCCCCCCC)nc(NCC2CCN(C)CC2)n1` [Compound D10S11N7], the “Absolute mRNA transfection efficiency” value is reported as 18.2%.
In the case of `CCCCCCCCCCCCCNc1nc(NCCN2CCOCC2)nc(SCCCCCC)n1` [Compound D2S6N13], the “Absolute mRNA transfection efficiency” value is reported as 0.2%.
In the case of `CCCCCCCCCCCCCCCCCCNc1nc(NCCCN2CCOCC2)nc(SCCCCCCCCCCCCCC)n1` [Compound D8S14N18], the “Absolute mRNA transfection efficiency” value is reported as 0.3%.
With `CCCCCCCCCCCCCCCCCCNc1nc(NCCN(CC)CC)nc(SCCCCCCCCCCCC)n1` [Compound D7S12N18] the “Absolute mRNA transfection efficiency” value was 1.1%.
`CCCCCCCCCCCCCCCSc1nc(NCCCCCCCCCCCC)nc(NCCN2CCCC2)n1` [Compound D3S15N12] was tested, and the “Absolute mRNA transfection efficiency” value was 7.5%.
For `CCCCCCCCCCCCCCCSc1nc(NCCCCCCC)nc(NCCN(CC)CC)n1` [Compound D7S15N7], the “Absolute mRNA transfection efficiency” value was 27.8%.
With `CCCCCCCCCCCCCCSc1nc(NCCCN2CCN(C)CC2)nc(N(CCCCCCCCCCCC)CCCCCCCCCCCC)n1` [D9S14^2N12] the “Absolute mRNA transfection efficiency” value was 0.1%.
In the case of `CCCCCCCCCCCCSc1nc(NCCCCCC)nc(NCCN(C)C)n1` [Compound D1S12N6], the “Absolute mRNA transfection efficiency” value is reported as 0.0%.
In the case of `CCCCCCCCCCCCCCCSc1nc(NCCCCCCC)nc(NCCCN2CCN(C)CC2)n1` [Compound D9S15N7], the “Absolute mRNA transfection efficiency” value is reported as 15.9%.
`CCCCCCNc1nc(NCCN(CC)CC)nc(SCCCCCC)n1` [Compound D7S6N6] was tested, and the “Absolute mRNA transfection efficiency” value was 1.2%.
In the case of `CCCCCCCCCCCCCCCSc1nc(NCCCCCCCCCCC)nc(NCCCN(C)C)n1` [Compound D6S15N11], the “Absolute mRNA transfection efficiency” value is reported as 7.8%.
For `CCCCCCCNc1nc(NCCN2CCN(C)CC2)nc(SCCCCCC)n1` [Compound D5S6N7], the “Absolute mRNA transfection efficiency” value was 4.3%.
`CCCCCCCCCCCCCCCSc1nc(NCCCCCCCCCCC)nc(NCCN2CCCCC2)n1` [Compound D4S15N11] was tested, and the “Absolute mRNA transfection efficiency” value was 1.0%.
With `CCCCCCCCCCCCSc1nc(NCCCCCCC)nc(NCCN2CCN(C)CC2)n1` [Compound D5S12N7] the “Absolute mRNA transfection efficiency” value was 9.9%.
For `CCCCCCCCCCCCSc1nc(NCCCCCCC)nc(NCCN(CC)CC)n1` [Compound D7S12N7], the “Absolute mRNA transfection efficiency” value was 13.1%.
For `CCCCCCCCCCCNc1nc(NCCCN2CCOCC2)nc(SCCCCCCCCC)n1` [Compound D8S9N11], the “Absolute mRNA transfection efficiency” value was 23.5%.
With `CCCCCCCCSc1nc(NCCCCCCC)nc(NCCCN2CCN(C)CC2)n1` [Compound D9S8N7] the “Absolute mRNA transfection efficiency” value was 1.4%.
In the case of `CCCCCCCCCCCCNc1nc(NCCN2CCOCC2)nc(SCCCCCCCC)n1` [Compound D2S8N12], the “Absolute mRNA transfection efficiency” value is reported as 7.0%.
With `CCCCCCCCCCCCCCCCCCNc1nc(NCC2CCN(C)CC2)nc(SCCCCCCCCCC)n1` [Compound D10S10N18] the “Absolute mRNA transfection efficiency” value was 6.0%.
With `CCCCCCCCCCCCCNc1nc(NCCCN2CCOCC2)nc(SCCCCCC)n1` [Compound D8S6N13] the “Absolute mRNA transfection efficiency” value was 0.0%.
With `CCCCCCCCCCCCCCCCSc1nc(NCCCCCCC)nc(NCCCN2CCOCC2)n1` [Compound D8S16N7] the “Absolute mRNA transfection efficiency” value was 17.7%.
In the case of `CCCCCCCCCCCCCCSc1nc(NCCCCCCCCC)nc(NCCN(CC)CC)n1` [Compound D7S14N9], the “Absolute mRNA transfection efficiency” value is reported as 29.8%.
`CCCCCCCCCCCCCCCNc1nc(NCCN(C)C)nc(SCCCCCCC)n1` [Compound D1S7N15] was tested, and the “Absolute mRNA transfection efficiency” value was 21.3%.
`CCCCCCCCCCCCNc1nc(NCCCN2CCN(C)CC2)nc(SCCCCCCCCCC)n1` [Compound D9S10N12] was tested, and the “Absolute mRNA transfection efficiency” value was 6.0%.
With `CCCCCCCCCCCNc1nc(NCCN(CC)CC)nc(SCCCCCCCCCC)n1` [Compound D7S10N11] the “Absolute mRNA transfection efficiency” value was 3.1%.
For `CCCCCCCCCCCCCCCCCCSc1nc(NCCCN(C)C)nc(N(CCCCCCCCCCCC)CCCCCCCCCCCC)n1` [D6S18^2N12], the “Absolute mRNA transfection efficiency” value was 0.1%.
With `CCCCCCCCCCCCSc1nc(NCCN(CC)CC)nc(SCCCCCCC)n1` [Compound D7S7S12] the “Absolute mRNA transfection efficiency” value was 5.8%.
For `CCCCCCCCCCCCCCCSc1nc(NCCCCCC)nc(NCCN(C)C)n1` [Compound D1S15N6], the “Absolute mRNA transfection efficiency” value was 37.7%.
In the case of `CCCCCCCCCCCCCCCCCCSc1nc(NCCN2CCCCC2)nc(N(CCCCCCCCCCCC)CCCCCCCCCCCC)n1` [D4S18^2N12], the “Absolute mRNA transfection efficiency” value is reported as 0.3%.
With `CCCCCCCCCCCCCCCNc1nc(NCCCN2CCN(C)CC2)nc(SCCCCCCCCCCC)n1` [Compound D9S11N15] the “Absolute mRNA transfection efficiency” value was 15.7%.
`CCCCCCCCCSc1nc(NCCCCCCC)nc(NCCN2CCN(C)CC2)n1` [Compound D5S9N7] was tested, and the “Absolute mRNA transfection efficiency” value was 2.6%.
`CCCCCCCCCCCCCCCNc1nc(NCCCN2CCOCC2)nc(SCCCCCCCCCCCCCCC)n1` [Compound D8S15N15] was tested, and the “Absolute mRNA transfection efficiency” value was 0.1%.
`CCCCCCCCCCCCCCSc1nc(NCCN(CC)CC)nc(N(CCCCCCCCCCCC)CCCCCCCCCCCC)n1` [D7S14^2N12] was tested, and the “Absolute mRNA transfection efficiency” value was 0.1%.
`CCCCCCCCCCCCCCSc1nc(NCCCCCCCCCCCC)nc(NCCN(CC)CC)n1` [Compound D7S14N12] was tested, and the “Absolute mRNA transfection efficiency” value was 6.6%.
For `CCCCCCCCCCCCN(CCCCCCCCCCCC)c1nc(NCCCN2CCN(C)CC2)nc(SCCCCCCCCC)n1` [D9S9^2N12], the “Absolute mRNA transfection efficiency” value was 0.3%.
`CCCCCCCCSc1nc(NCCCCCCC)nc(NCCN2CCOCC2)n1` [Compound D2S8N7] was tested, and the “Absolute mRNA transfection efficiency” value was 0.9%.
In the case of `CCCCCCCCCCCCNc1nc(NCC2CCN(C)CC2)nc(SCCCCCCC)n1` [Compound D10S7N12], the “Absolute mRNA transfection efficiency” value is reported as 63.7%.
With `CCCCCCCCCCCCCCCSc1nc(NCCCCCCC)nc(NCCN2CCCCC2)n1` [Compound D4S15N7] the “Absolute mRNA transfection efficiency” value was 1.2%.
`CCCCCCCCCCCCCCCCCCSc1nc(NCCCCCCC)nc(NCCN2CCCCC2)n1` [Compound D4S18N7] was tested, and the “Absolute mRNA transfection efficiency” value was 0.3%.
With `CCCCCCCCCCCCNc1nc(NCCCN2CCN(C)CC2)nc(SCCCCCCCCC)n1` [Compound D9S9N12] the “Absolute mRNA transfection efficiency” value was 36.0%.
With `CCCCCCCCCCCCCCCCCCSc1nc(NCCCCCCCC)nc(NCCN2CCOCC2)n1` [Compound D2S18N8] the “Absolute mRNA transfection efficiency” value was 3.1%.
With `CCCCCCCCCCCSc1nc(NCCCCCCCC)nc(NCCN2CCCCC2)n1` [Compound D4S11N8] the “Absolute mRNA transfection efficiency” value was 4.3%.
With `CCCCCCCCCNc1nc(NCCCN(C)C)nc(SCCCCCCCC)n1` [Compound D6S8N9] the “Absolute mRNA transfection efficiency” value was 6.7%.
For `CCCCCCCCCCCCCCCCCCSc1nc(NCCCCCC)nc(NCCN2CCCCC2)n1` [Compound D4S18N6], the “Absolute mRNA transfection efficiency” value was 1.5%.
For `CCCCCCCCCCCCCCCCNc1nc(NCCN2CCN(C)CC2)nc(SCCCCCCCC)n1` [Compound D5S8N16], the “Absolute mRNA transfection efficiency” value was 32.3%.
In the case of `CCCCCCCCCCCCCCSc1nc(NCCCCCCCC)nc(NCCN2CCCCC2)n1` [Compound D4S14N8], the “Absolute mRNA transfection efficiency” value is reported as 3.2%.
With `CCCCCCSc1nc(NCCCN2CCN(C)CC2)nc(SCCCCCC)n1` [Compound D9S6S6] the “Absolute mRNA transfection efficiency” value was 8.0%.
For `CCCCCCCCCCSc1nc(NCCCCCCCCC)nc(NCCN(CC)CC)n1` [Compound D7S10N9], the “Absolute mRNA transfection efficiency” value was 1.6%.
With `CCCCCCCCCCCCCCCCCCNc1nc(NCCN(C)C)nc(SCCCCCCCCCC)n1` [Compound D1S10N18] the “Absolute mRNA transfection efficiency” value was 4.8%.
With `CCCCCCCCCCCCCCCSc1nc(NCCCCCCC)nc(NCCCN2CCOCC2)n1` [Compound D8S15N7] the “Absolute mRNA transfection efficiency” value was 2.2%.
`CCCCCCCCCCCCCCCCCCNc1nc(NCCN2CCN(C)CC2)nc(SCCCCCCC)n1` [Compound D5S7N18] was tested, and the “Absolute mRNA transfection efficiency” value was 38.5%.
With `CCCCCCCNc1nc(NCCCN(C)C)nc(SCCCCCCC)n1` [Compound D6S7N7] the “Absolute mRNA transfection efficiency” value was 1.8%.
